{"source": "patent US7943156B2", "about": "“Use of peptides of general formula I X-SEQ ID No.1-Y in the preparation of cosmetic compositions which are intended to improve the firmness of the skin by increasing cell adhesion” (Lipotec, S.A., priority 2004, dated 2011)", "key": {"[1]": {"system": "human epidermal keratinocytes (HEKa)", "assay": "In vitro cell adhesion of keratinocytes to peptide-coated microwells (calcein fluorescence)", "assay_type": "cell-based", "details": "for cell adhesion of keratinocytes: HEKa, peptide-coated microwells 0.5-250 μg/ml, 4 concentrations, 2 hours", "method": "1-Y and the comparative evaluation between them.\nThe cell cultures used in the following example are human epidermal keratinocytes (HEKa) in the presence of specific growth factors of keratinocytes.\nFirst, 96 microwells are placed in a plate, they are coated with 50 μL of a peptide of general formula X-SEQ ID NO.1-Y (0.5-250 μg/ml per microwell) in distilled water and dried overnight at room temperature.\nOn the other hand, control assays are carried out with microwells coated with 40 μM of BSA (bovine serum albumin) so as to evaluate non-specific cell adhesion.\nAll the microwells have been washed with 200 μL of PBS (phosphate buffered saline) and blocked for 1 hour with 1% BSA in PBS at 37° C.\nTrypsin was added to human cutaneous keratinocytes, and they were marked for 30 minutes at 37° C. in calcein-AM at a concentration of 5 μM and they were finally washed three times in Epilife® medium.\nThe marked cells (4.5×10^4/microwell) were added to the plate previously coated with the X-SEQ ID No. 1-Y peptide and were incubated for 2 hours at 37° C. in an atmosphere humidified with 5% CO2.\nThe cell adhesion was assessed by the measurement of calcein fluorescence before and after the washing.\nThe percentage of cell adhesion was determined by dividing the fluorescence of adhered cells by the total fluorescence of cells added to each microwell.\nThe cell adhesion promoted by the X-SEQ ID No. 1-Y peptides was calculated with respect to the non-specific adhesion of the cells to BSA."}, "α6 integrin": {"system": "α6 integrin", "assay": "Immunostaining of α6 integrin expression in human fibroblasts and keratinocytes", "assay_type": "cell-based", "from_the_text": "(§1) Immunostaining assays have been carried out in human fibroblasts and keratinocytes in order to determine if SEQ ID No. 2 has the ability to enhance the expression of α6 integrin and laminin V (FIGS. 2, 3, 4, and 5).\n(§2) The assay uses a primary (monoclonal) antibody binding to the protein which is intended to be detected (integrin or laminin), and a secondary (polyclonal) antibody binding to the complex between the protein and the primary antibody. The secondary antibody is coupled to a fluorescent compound (FITC-Fluorescein Isothiocyanate).\n(§3) FITC is illuminated with filtered light at 495 nm (absorption wavelength) and the light emitted by the dye is detected at 528 nm (emission wavelength)."}, "laminin V": {"system": "laminin V", "assay": "Immunostaining of laminin V expression in human fibroblasts and keratinocytes", "assay_type": "cell-based", "details": "human fibroblasts, immunofluorescence, vs control without peptide", "from_the_text": "as §1, §2, §3"}, "beta 1 integrin": {"system": "beta 1 integrin", "assay": "Immunostaining, production of beta 1 integrin", "assay_type": "cell-based, human"}, "human fibroblasts": {"system": "human fibroblasts", "assay": "Cell adhesion in in vitro fibroblast culture", "assay_type": "cell-based", "details": "vs untreated", "from_the_text": "The adhesion process at a cellular level has been determined by means of a in vitro fibroblast culture in the second embodiment assay.\nFIGS. 6 and 7 show a uniform coating of the assay microwell and the growth and distribution of the fibroblasts that are more related with cell adhesion than with cell proliferation."}}, "note": "Entries after “also recorded” stand apart in the source; their conditions may differ. No end group written: not given here. *: point of attachment. Palmitoyl = CCCCCCCCCCCCCCCC(=O)*"}
{"substance": "SEQ ID No. 2-amino: variant of SEQ ID No. 2 with Y amino (SEQ ID NO. 2-NH2) (SIKVAV-NH2; listed as Homo sapiens)", "values": [{"measurement": "cell adhesion of keratinocytes", "setting": "[1]", "result": "increase of cell adhesion"}, {"measurement": "keratinocyte cell adhesion, SEQ ID No. 2 vs SEQ ID No. 2-amino (FIG. 10)", "setting": "[1]; small doses (0.5 μg/ml)", "result": "greater"}]}
{"substance": "SEQ ID No. 1: peptide of general formula I in which X is hydrogen and Y is hydroxyl (H-IKVAV-OH; listed as Homo sapiens)", "values": [{"measurement": "cell adhesion of keratinocytes", "setting": "[1]", "result": "Stimulation of keratinocyte adhesion"}, {"measurement": "cell adhesion of keratinocytes", "setting": "[1]; listed as SEQ ID NO. 1", "result": "increase of cell adhesion"}]}
{"substance": "Pal-SEQ ID No. 1: X-SEQ ID No. 1-Y peptide where X is the palmitoyl radical (Palmitoyl-IKVAV; listed as Homo sapiens)", "values": [{"measurement": "cell adhesion of keratinocytes", "setting": "[1]", "result": "Stimulation of keratinocyte adhesion"}, {"measurement": "cell adhesion of keratinocytes", "setting": "[1]; listed as Pal-SEQ ID NO.1", "result": "increase of cell adhesion"}]}
{"substance": "SEQ ID No. 2: peptide of general formula I in which X is serine and Y is hydroxyl; laminin-derived (SIKVAV-OH; listed as Homo sapiens)", "values": [{"measurement": "expression of α6 integrin", "setting": "α6 integrin; human fibroblasts, immunofluorescence, vs control without peptide", "result": "increase of the expression; also recorded: significant increase"}, {"measurement": "expression of α6 integrin", "setting": "α6 integrin; human fibroblasts, immunofluorescence, vs control without peptide, listed as SEQ ID NO.2", "result": "stimulation of the expression"}, {"measurement": "expression of α6 integrin", "setting": "α6 integrin; keratinocytes, immunostaining", "result": "not in keratinocytes"}, {"measurement": "expression of laminin V", "setting": "laminin V", "result": "increase of the expression; also recorded: significant increase"}, {"measurement": "expression of laminin V", "setting": "laminin V; listed as SEQ ID NO.2", "result": "stimulation of the expression"}, {"measurement": "production of beta 1 integrin", "setting": "beta 1 integrin", "result": "No variation"}, {"measurement": "cell adhesion in human fibroblasts", "setting": "human fibroblasts", "result": "promoting cell adhesion and migration"}, {"measurement": "cell adhesion of keratinocytes", "setting": "[1]", "result": "Stimulation of keratinocyte adhesion"}, {"measurement": "cell adhesion of keratinocytes", "setting": "[1]; listed as SEQ ID NO. 2", "result": "increase of cell adhesion"}, {"measurement": "cell adhesion of keratinocytes", "setting": "[1]; listed as SEQ ID NO.2", "result": "increase of cell adhesion"}, {"measurement": "keratinocyte cell adhesion, comparison between peptides (FIG. 9)", "setting": "[1]; extrapolated results of FIG. 9, SEQ ID No. 2 vs SEQ ID No. 1 vs Pal-SEQ ID No. 1", "result": "greater adhesion"}, {"measurement": "keratinocyte cell adhesion, SEQ ID No. 2 vs SEQ ID No. 2-amino (FIG. 10)", "setting": "[1]; larger doses", "result": "greater adhesion"}]}
